Series [1] in a line: 1E7-03 degradation in mouse plasma. It is filed as in vitro ADME. To be noted: for % of 1E7-03 degraded: mouse plasma, 10 μM. The protocol:
(§1) A 10 μl aliquots from each sample were loaded to a LC-20AD nano HPLC system (Shimadzu Corporation, Columbia, MD, USA) coupled to LTQ XL Orbitrap mass spectrometer (Thermo Fisher Scientific) with the installed Xcalibur software (version 2.0.7, Thermo Fisher Scientific). Liquid chromatography was carried out on an in-house made nano-HPLC column (Polymicro Technologies Inc., Phoenix, AZ, USA) packed with reverse phase PolySulfoethyl A, 5μM, 200 Å (PolyLC Inc., Columbia, MD, USA). Mobile phase A was 0.1% formic acid in water and mobile phase B - 0.1% formic acid in acetonitrile. The elution was performed at a flow rate of 600 nl/min over 40 min using a multisegment linear gradient of mobile phase B as follows: 0–6.02 min, 1% B; 6.02–6.11 min, 1–2% B; 6.11–20 min, 2−80% B; 20–25 min, 80% B; 25–30 min, 80–85% B; 30–31 min, […]; 31–40 min, 2% B (v/v). The Orbitrap was operated under data-dependent acquisition mode. The spray voltage, capillary temperature and capillary voltage were set to 2.0 kV, 200 °C, and 39.5 V, respectively. Full-scan mass spectra were acquired in Orbitrap over 150−1500 m/z with a resolution of 30 000, followed by MS^n scans by CID activation mode. The precursor ions were fragmented with collision energy of 18 with activation Q of 0.25 and an activation time of 30 ms. Dynamic exclusion was enabled with a repeat count of 2, a repeat duration of 15 s, exclusion duration of 20 s, an exclusion list size of 50. The mass spectrometer was also operated in NL scan of m/z 18.01, 45.05, 71.03 and 72.02 and MRM mode. The MRM transitions were controlled by a segmented program in order to short the scan cycle and increase sensitivity.
1E7-03 dissolved in DMSO (10 mM stock solution) was mixed with mouse plasma (Sigma-Aldrich), guinea pig plasma (Sigma-Aldrich), ferret plasma (BioreclamationIVT), monkey plasma (courtesy of Binhua Ling, PhD, Tulane University) and human plasma (collected from heathy volunteer by the Center for Sickle Cell Disease at Howard University) to the final concentration of 10 μM and incubated at 37°C. Aliquots were collected at different time points for up to 24 hrs. The resulting sample (60 μl) was mixed with 240 μl of cold acetone, vortexed for 2 min, kept at –20°C for 30 min, and then the precipitated protein was removed by centrifugation at 13,000 × g for 5 min. The supernatant was transferred to a clean test tube and evaporated to dryness using a SpeedVac concentrator. The residue reconstituted in 60 μl of acetonitrile for LC/FT-MS analysis. All experiments were run parallel in triplicates.

The test system of the next series is HIV-1-LUC-G. The experiment in a line: Single round HIV-1 replication, luciferase readout in CEM T cells. The series is classed as cell-based. The note with it: Human immunodeficiency virus 1, T-cell. The procedure: CEM T cells were infected with VSVG-pseudotyped pNL4-3.Luc.R-E-virus (HIV-1-LUC-G) prepared as previously described and cultured in 96-well white plates ( 1.25 × 10^6 cells/ml, 100 μl/well) at 37°C and 5% CO2. The cells were treated with serial dilutions of the compounds or vehicle (DMSO) and incubated overnight. At 24 hrs post infection, 100 μl of reconstituted luciferase buffer (Luclite Kit, Perkin Elmer) was added to each well, incubated for 10 min and luminescence was measured using Glo-Max Microplate Multimode reader (Promega).

Another series relates to CEM T cells. Put plainly: Cell viability, trypan blue-based assay. To be noted: 24 h; for effect on cell viability: up to 180 μM, in words. The protocol:
CEM T cells were cultured in 96-well plates at 37°C and incubated with the indicated compound concentrations for 24 hrs. Cell viability was determined using trypan blue-based assay.

A short description of series [2]: Pharmacokinetic analysis in mice after i.p. injection. The note with it: male, BALB/cJ, ip. It is filed as in vivo. The procedure: The animal facilities and protocols were approved by Howard University Institutional Animal Care and Use Committee (IACUC). All experimental procedures were in accordance with the NIH Guidelines for the Care and Use of Laboratory Animals. BALB/cJ male mice (8 weeks old, 25–30 g) were purchased from Jackson Laboratory (Bar Harbor, ME, USA) and housed under pathogen-free conditions in HEPA-filtered cages and kept on a 12 h light/dark cycle. Compounds were administered to mice via intraperitoneal (i.p.) injection with maximum achievable doses of 30 mg/kg 1E7-03 (100 μl injection of 8 mM 1E7-03 in 80% DMSO/20% saline) and 100 mg/kg DP1-07 (100 μl injection of 100 mM DP1-07 in 40% propylene glycol/10% DMSO/50% saline). Blood samples were collected at different time points (15 min, 30 min, 1 hr, 3 hr, 6 hrs and 24 hrs) for each group (n=3 mice per group). For each sample, 20 μl of plasma was mixed with 80 μl cold acetone, and centrifuged at 13,000 rpm for 5 min. The supernatant was transferred to a clean test tube and dried in a SpeedVac concentrator. The residue was re-constituted in 50 μl of acetonitrile for LC-MS analysis. Calibration curves were prepared by spiking 1E7-03, DP1, DP3 and DP1-07 into the drug-free mouse plasma and subjected to similar sample extraction procedures. The plasma concentration–time profile of each analyte was constructed and pharmacokinetic parameters were determined by non-compartmental method using Phoenix WinNonlin Version 5.3 (Pharsight Corporation, Mountain View, CA).
as §1

Series [3] in a line: Stability in mouse liver microsomes. It is filed as in vitro ADME. To be noted: 10 μM 1E7-03, 37°C, 1 hr; 1E7-03 remaining and DP1, DP3 formed. The procedure: The metabolic stability of 1E7-03 was also investigated using a pool of human and mouse liver microsomes (HMS9PL, MSS9PL, Thermo Scientific) following manufacturer's instructions. In brief, incubations were conducted at 37 ± 1°C in mixtures containing 5 μl of human or mouse liver microsomes (20 mg/ml), 183 μl of potassium phosphate buffer (pH 7.4, 100 mM) and 2 μl of 1E7-03 (10 mM sock solution of 1E7-03 in DMSO was diluted into 1 mM by PBS). The mixture was pre-incubated for 5 min, then initiated the reactions with the addition of 10 μl 20 mM NADPH (Sigma Aldrich). The reactions were terminated after 1 hr incubation by adding 800 μl cold acetone. The mixture was kept at 4°C for 30 min, and the precipitated protein was removed by centrifugation (13, 000 g for 10 min at 4°C). A 250 μl aliquot of supernatant was transferred to a clean test tube and evaporated to dryness using a SpeedVac concentrator. The residue was reconstituted in 50 μl of acetonitrile with 0.1% FA for LC/FT-MS analysis.

[4] abbreviates: read-out: One round HIV-1 infection IC50, CEM T cells, HIV-1-LUC-G, Figure 4A.
Setting [5] is: read-out: One round HIV-1 infection IC50, CEM T cells, HIV-1-LUC-G, Figure 7D.
Where [6] appears, read: mouse plasma after i.p. 30 mg/kg 1E7-03, parent and its metabolites DP1, DP3, mean, n=3.
Where [7] appears, read: mouse plasma after i.p. 30 mg/kg 1E7-03, parent and metabolites DP1, DP3.
[8] abbreviates: mouse, plasma, 30 mg/kg, mouse plasma after i.p. 30 mg/kg 1E7-03, parent and metabolites DP1, DP3.
Setting [9] is: mouse plasma after i.p. 100 mg/kg DP1-07, parent and products DP1-07P1, DP1-07P2.

“And” between values parts separate entries of the source, which are not always exact repeats. Identical values can stand only once. Like-named read-outs stand apart in the source and are kept apart here. Some results are limits rather than exact numbers.

These results are taken from paper PMC5652740, “Inhibition of HIV-1 infection in humanized mice and metabolic stability of protein phosphatase-1-targeting small molecule 1E7-03” (Oncotarget, 2017).

Turning to `CCNC(=O)NC(=O)C(C)OC(=O)c1c2c(nc3ccccc13)/C(=C/c1ccc(OC)c(OC)c1)CC2` (stereo not shown) [1E7-03], the “stability in mice and mouse plasma” value in series [1] (in words) was “not stable”. In addition, in series [1] (37°C, 2 hrs), the “% of 1E7-03 degraded” value is 40%. In addition, the “% of 1E7-03 degraded” value in series [1] (37°C, 4 hrs) was “over 85%”. Also, the IC50 in the series on HIV-1-LUC-G (setting [4]) worked out at 1.7 µM. Further, the IC50 in the series on HIV-1-LUC-G (setting [5]) amounted to 2 µM. Besides, the viability reduction entry with CEM T cells (highest tested 180 μM) is listed as “about 30%”. In addition, the Cmax in series [2] (setting [6]) stood at 3.43 µM. Moreover, in series [2] (setting [7]), the area under the curve AUC(0-t) amounted to 12.2 µM·h, the MRT last came to 2.4 h and the half-life is 3.39 h. Also, the Tmax in series [2] (setting [8]) was 0.5 h. Besides, in series [3], the “% of Total (Liver microsomes, Mouse)” value is 91% and 90.61%.

As to `COc1ccc(/C=C2\CCCc3c2nc2ccccc2c3C(=O)OC(C)C(=O)OC(C)(C)C)cc1OC` (stereo not shown) [DP1-07], in the series with HIV-1-LUC-G (setting [5]), the IC50 was greater than 66 µM. Besides, in series [2] (setting [9]), the AUC(0-t) turned out to be 706 µM·h, the MRT last amounted to 10.7 h and the half-life was 14.3 h. Further, the Cmax in series [2] (mouse plasma after i.p. 100 mg/kg DP1-07, parent and products DP1-07P1, DP1-07P2 (quantified with DP1 and DP3 calibration curves)) amounted to 42.7 µM. In series [2] (mouse, plasma, 100 mg/kg, mouse plasma after i.p. 100 mg/kg DP1-07, parent and products DP1-07P1, DP1-07P2), the Tmax is roughly 6 h. Further, the concentration at 24 h in series [2] (mouse, plasma, i.p. 100 mg/kg DP1-07, 24 hrs, read-out: concentration present in murine blood 24 hrs post-injection) came out at 18 µM.

Take `COc1ccc(/C=C2\CCc3c2nc2ccccc2c3C(=O)OC(C)C(=O)O)cc1OC` (stereo not shown) [DP1]: the “time at which DP1 levels reached their maximum” value in series [1] (10 μM 1E7-03 in mouse plasma, 37°C) is 2 h. The IC50 with HIV-1-LUC-G (setting [4]) was 17 µM. The “effect on cell viability” value in the series with CEM T cells is reported as “no effect”. In addition, in series [2] (setting [6]), the Cmax amounted to 9.09 µM. In addition, in series [2] (setting [7]), the AUC(0-t) worked out at 124 µM·h, the MRT last is 4.98 h and the half-life is 3.2 h. In addition, the Tmax in series [2] (setting [8]) amounted to 3 h. In addition, the “% of Total (Liver microsomes, Mouse)” value in series [3] is recorded as 8.36%.

`COc1ccc(/C=C2\CCc3c2nc2ccccc2c3C(=O)O)cc1OC` [DP3]: the “level of degradation product in mouse plasma” value in series [1] (10 μM 1E7-03 in mouse plasma, 37°C, up to 24 hrs) is reported as “low levels”. The IC50 in the series with HIV-1-LUC-G (setting [4]) is greater than 180 µM. For the same molecule, the “effect on cell viability” value in the series on CEM T cells was “no effect”. For the same molecule, the Cmax in series [2] (setting [6]) is 3.61 µM. Besides, in series [2] (setting [7]), the AUC(0-t) amounted to 30.7 µM·h, the MRT last came to 4.39 h and the half-life was 2.44 h. Also, in series [2] (setting [8]), the Tmax was determined as 1 h. The “% of Total (Liver microsomes, Mouse)” value in series [3] is 1.03%.
